Data: article PMC3351444, “Molecular Evolution of a Peptide GPCR Ligand Driven by Artificial Neural Networks” (PLoS ONE, 2012)
Where two headings read alike, the source gives them in different places. Ends that are not written are not given here.

What was measured:
[1] = In vitro peptide stability in human serum (RP-HPLC); details: for half-life at 50 µg/mL: human, human serum, 25% (v/v) in RPMI
Experimental: The initial time is recorded, and at known time intervals 50 µL of the reaction solution is removed and added to 100 µL of 6% aqueous trichloroacetic acid (TCA) for precipitation of serum proteins. […] The reaction supernatant is then analyzed using RP-HPLC (Agilent 1200 LC System) on a ZORBAX Eclipse XDB-C18, 4.6×150 mm, 5 µm column (Agilent). […] Fluorescence is detected at an excitation wavelength of 280 nm and emission wavelength of 340 nm. Kinetic analysis was carried out by least-squares analysis of the logarithm of the integration peak area versus time.

human CMKLR1 = target: T1, human CMKLR1 (Homo sapiens, UniProt Q99788); test: Ca2+ mobilization (CellLux imaging) agonist assay in HEK293A cells expressing CMKLR1 and Gα15; type: cell-based
T1 construct: host or cells: HEK293A (Invitrogen), stably expressing human Gα15
T1 sequence (Q99788 1-373): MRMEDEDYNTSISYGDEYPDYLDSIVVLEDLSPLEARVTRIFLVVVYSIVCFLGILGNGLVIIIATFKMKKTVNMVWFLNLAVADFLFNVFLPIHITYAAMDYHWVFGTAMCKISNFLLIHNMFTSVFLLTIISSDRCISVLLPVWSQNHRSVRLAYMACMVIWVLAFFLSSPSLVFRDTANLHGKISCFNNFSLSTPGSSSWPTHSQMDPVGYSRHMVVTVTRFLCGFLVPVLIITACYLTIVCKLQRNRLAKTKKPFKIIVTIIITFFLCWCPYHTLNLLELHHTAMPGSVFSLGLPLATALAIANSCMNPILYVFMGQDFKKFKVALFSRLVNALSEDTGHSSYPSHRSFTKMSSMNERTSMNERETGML
Summary of the method: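 Agonist-evoked Ca2+ rise, read as FLUO4-AM fluorescence by imaging, in HEK293A cells carrying CMKLR1 plus Gα15. Peptides were diluted in C1 solution (pH 7.4) containing 0.1% BSA. Duplicate signals were averaged, corrected for buffer wells and normalized to background, and EC50 was fitted from amplitude versus concentration.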

[2] = Ca2+ mobilization, CMKLR1, decimal comma
[3] = Ca2+ mobilization, CMKLR1, decimal comma, NR where no EC50 is given, read-out: EC50

Substance	half-life at 50 µg/mL [1]	max response (human CMKLR1; [2])	EC50 (human CMKLR1; [3])	EC50 (human CMKLR1; intracellular calcium mobilization, HEK293 cells expressing CMKLR1, mean of three independent experiments ± SD, read-out: activity: EC50 ±SD)	t1/2 ([1]; metabolic stability in human serum)
YLPGQGAFK-OH [compound 69]	22 min	0,99 DF/F0	1870 nM	–	–
YLPGQGAFP-OH [compound 49]	17 min	0,97 DF/F0	28.7 nM	–	–
YLPGQYAFL-OH	27 ± 4 min	–	–	5.75 ± 2.56 nM	–
YLPGQYAFL-OH [compound 38]	–	1,05 DF/F0	–	–	27 min
YLPGQYLFL-OH [compound 56]	19 min	0,57 DF/F0	114 nM	–	–
YLPGYLPGH-OH [compound 77]	17 min	1,04 DF/F0	217000 nM	–	–
YPPGQYAFF-OH [compound 68]	54 min	0,94 DF/F0	1480 nM	–	–

Other lines, results leading:

half-life at 50 µg/mL [1]	max response (human CMKLR1; [2])	EC50 (human CMKLR1; [3])	EC50 (human CMKLR1; intracellular calcium mobilization, HEK293 cells expressing CMKLR1, mean of three independent experiments ± SD, read-out: activity: EC50 ±SD)	t1/2 ([1]; metabolic stability in human serum)	Substance
26 min	0,98 DF/F0	1.89 nM	–	–	YFPGQYAFF-OH [compound 30]
24 min	1,01 DF/F0	5.85 nM	–	–	YLPGQFAFL-OH [compound 39]
15 min	0,76 DF/F0	9.54 nM	–	–	YLPGQFQFS-OH [compound 44]
16 min	0,92 DF/F0	15.6 nM	–	–	YLPGQYAFY-OH [compound 48]
